Measurements taken from publication PMC12682123, “Positron emission tomography to assess drug occupancy at peripheral and central incretin receptors” (eBioMedicine, 2025).
Read-outs that look alike come from different tables or passages of the source. No end group written: not given here.

Key:
human GLP-1R = details: 10 nM tracer; for reduction of [^68Ga]Ga-DO3A-Exendin-4 binding: 60 min, RT, p < 0.0001
Protocol: The receptor specificity assay was repeated four times.
The following procedures were then performed for both assays: After incubation, the sections were washed with cold PBS (3× 1 min), dipped in MilliQ water, and air-dried at 37 °C for 10 min. Finally, the sections were exposed to digital phosphorimager plates (BAS-MS, Fujifilm) overnight (>10 radioactive half-lives) followed by digitalisation using a phosphorimage scanner (Amersham Typhoon FLA 9500 Phosphor Imager, GE) with a 50-μm pixel size for image visualisation. A 10 μl reference droplet, containing a known amount of radioactivity, was incorporated to facilitate the quantification of the autoradiogram.
The pixel values, measured in counts/mm^2, were transformed into Bq/mm^2 using the internal reference.

GLP-1R [1] = system: GLP-1R
Excerpt: Pigs (n = 9) were positioned in the PET/CT scanner (Discovery MI, GE Healthcare) in a supine position with the brain at the centre of the Field of View (FOV). […] The peptide mass dose was chosen to avoid self-block of the GLP-1R by unlabelled DO3A-Exendin-4 peptide in the formulation and was based on previous dose-escalation studies in non-human primates.[23] A dynamic 60-min PET scan was started at tracer injection, serving as the baseline scan to visualise and quantify GLP-1R expression under normal physiological conditions prior to drug intervention. Following the dynamic scan, a whole-body CT was acquired, immediately followed by a whole-body static PET scan covering the regions from the brain to the bladder.
One experiment used unlabelled DO3A-VS-Exendin-4 (6 μg/kg) as a positive control (Table 4).
The follow-up scan was designed to assess the decreased binding of the tracer to its receptor, which, when compared to the baseline scan, would indicate reduced receptor availability, such as that caused by drug occupancy at the target GLP-1 receptor.
The reconstructed dynamic and whole-body static PET images were analysed using PMOD Base Functionality (PBAS) tool (PMOD Technologies LLC, Zurich, Switzerland) through manual segmentation on trans-axial PET and CT projections. Segmented tissues included the descending aorta, pancreas, liver, spleen, kidneys, and muscle. The tracer distribution in brain regions was measured by automated segmentation of brain regions. This was achieved by fusing the acquired PET dynamic images with the PMOD MRI pig brain atlas. […] CVOs, such as pituitary gland, were not included in the brain atlas and were thus segmented manually.
(§2) The convention to the SUV was corrected to the time and administered amount of radioactivity (in MBq) and the weight (in kilograms) of the pig.
The target engagement or drug occupancy for each experiment was calculated by subtracting the SUV in a tissue at the follow-up scan from the SUV in the same tissue at the baseline scan. The difference was divided by the SUV in tissue at baseline and multiplied by 100 to reach the percentage of drug occupancy (Equation 1):Equation 1 Occupancy(%)=SUVbaseline−SUVfollow−up/SUVbaseline×100
All PET measurements were expressed as average SUVmean.

[2] = cited from earlier work
Excerpt: (§1) This can likely be explained by the lower GLP-1R affinity of tirzepatide, which instead is shifted towards higher affinity to the GIPR.[26]

GIPR [3] = details: in vitro; cited from earlier work
Excerpt: as §1

GLP-1R [4] = details: in vitro; cited from earlier work
Excerpt: as §1

[5] = cited from earlier work; remark: listed apart in the source
Excerpt: Tirzepatide is the first dual GLP-1R/GIPR agonist approved for the treatment of type 2 diabetes (T2D).[11]

mice = details: central administration; cited from earlier work
Excerpt: One of the advancements of GLP-1R/GIPR co-activation is potentially the reduced nausea, food aversion, and emesis associated with GLP-1R-based treatment, in addition to an even more increased reduction in appetite and calorie intake.[26]^,[39] These effects may be associated with central activation of GLP-1 receptors by these drugs, and it has been proposed that the concurrent activation of central GIPR by tirzepatide exerts an anti-emetic effect, thereby improving tolerability to GLP-1 receptor–mediated side effects.

GIPR [6] = experiment: In vivo GIPR drug occupancy in pigs using [^68Ga]S02-GIP-T4 PET; parameters: species or system pig; details: infusion 0.5/50 μg/ml from 30 min before and throughout second scan, n = 1
Protocol: The study design for GIPR occupancy assessment in pigs was identical to that of GLP-1R, except for the following differences:
The pigs (n = 5) were positioned in the PET/CT scanner in a supine position with either the brain (n = 2) or the pancreas (n = 3) in the FOV when using [^68Ga]S02-GIP-T4. A target dose of 0.5–1 MBq/kg of [^68Ga]S02-GIP-T4, corresponding to a standardised peptide mass dose of 0.1 μg/kg, was administered for both baseline and follow-up scans (Tables 5 and 6). The peptide mass dose was chosen to avoid self-block of the GIPR, and based on previous dose-escalation studies in non-human primates.[16]
SAR441255 was administered subcutaneously at a dose of 100 μg/kg in four pigs, as described above (Table 5). […]
The reconstructed dynamic and whole-body static PET images were analysed using PMOD Base Functionality (PBAS) tool (PMOD Technologies LLC, Zurich, Switzerland) through manual segmentation on trans-axial PET and CT projections. […] The tracer distribution in brain regions was measured by automated segmentation of brain regions. […]
as §2
The target engagement or drug occupancy for each experiment was calculated by subtracting the SUV in a tissue at the follow-up scan from the SUV in the same tissue at the baseline scan. […]

[7] = pre-administration of unlabelled peptide as positive control, 6 μg/kg / 10 μg/kg (Table 4), n = 1
[8] = even at highest doses (450 μg/kg) s.c.

Substance: DO3A-Exendin-4: unlabelled peptide used for blocking, positive control; made by in-house SPPS by Sanofi
- reduction of [^68Ga]Ga-DO3A-Exendin-4 binding (human GLP-1R; pre-incubated with 1 μM (10 min, PBS + 1% BSA)): 80 ± 16%
- decrease of [^68Ga]Ga-DO3A-Exendin-4 uptake in pancreas (GLP-1R [1]; [7]): 73%
- decrease of [^68Ga]Ga-DO3A-Exendin-4 uptake in pituitary gland (GLP-1R [1]; [7]): 53%
- reduction of [^68Ga]Ga-DO3A-Exendin-4 uptake in hypothalamic region (GLP-1R [1]; [7]): 55%
- reduction of [^68Ga]Ga-DO3A-Exendin-4 uptake in mammillary body (GLP-1R [1]; [7]): 60%

Substance: tirzepatide: first dual GLP-1R/GIPR agonist approved for the treatment of type 2 diabetes
- competition with [^68Ga]Ga-DO3A-Exendin-4 at GLP-1R (human GLP-1R; 10 μM): competed for an overlapping binding site of GLP-1R
- reduction of [^68Ga]Ga-DO3A-Exendin-4 binding (human GLP-1R; pre-incubated with 10 μM): 84.9 ± 7%
- occupancy in appetite-regulating brain regions (GLP-1R [1]; 50–450 μg/kg s.c., experimental design not aligned with Tmax): did not show detectable occupancy
- GLP-1R occupancy in pancreas, did not exceed (GLP-1R [1]; [8]): ≤ 60%
- GLP-1R occupancy in pituitary, did not exceed (GLP-1R [1]; [8]): ≤ 60%
- Tmax (in words) ([2]; extended plasma half-life, no reference given): on the order of days
- Tmax ([2]; subcutaneous): 8 to 72 h
- affinity to GIPR vs endogenous GIP(1–42) (GIPR [3]): same affinity
- affinity to GLP-1R vs native GLP-1 (GLP-1R [4]): fivefold lower affinity
- glucose-lowering effect vs mono GLP-1R agonism [5]: greater glucose-lowering effect
- weight reduction vs mono GLP-1R agonism [5]: greater weight reduction

Substance: glucagon-like peptide-1 (HAEGTFTSDVSSYLEGQAAKEFIAWLVKGR; ends and bridges not checked; UniProt P01275 98-127, looked up) [GLP-1, endogenous incretin hormone]
- food intake (mice): reduced food intake

Substance: glucose-dependent insulinotropic polypeptide [GIP (1–42)]
- decrease of pancreatic [^68Ga]S02-GIP-T4 signal (GIPR [6]): 24%
- food intake (mice): reduced food intake
